Assay results as given in US9868748B2, “Thiazolopyrrolidine inhibitors of ROR- γ” (Vitae Pharmaceuticals, Inc., priority 2013, dated 2018).
Where two headings read alike, the source gives them in different places.

Tests used:
[1] = target: recombinant RORγ Ligand Binding Domain (LBD) protein (Homo sapiens (Human), UniProt P51449); experiment: Radio-Ligand RORγ Binding Assay (Assay 1); details: competition with 25-hydroxy [26,27-3H]-cholesterol, SPA, read-out: RORγ Binding Ki Range*
Outline: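 Recombinant human RORγ ligand binding domain (6×His-GST fusion, 24 nM stock) competed with tritiated 25-hydroxycholesterol (8.6 nM stock) in HEPES buffer pH 7.4 with detergents and DTT; poly-Lys YSi SPA beads, room temperature, tritium SPA signal. Four-parameter IC50 from semi-log dilutions, normalised to DMSO and 10 μM T0901317, then Ki via KD equation.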

[2] = target: full-length RORγt in Jurkat cells (Homo sapiens (Human), UniProt P51449); experiment: RORγt 5xRORE Assay in Jurkat Cells (Assay 2); format: cell-based; details: Nanoluc luciferase reporter, 16-18 hrs
full-length RORγt in Jurkat cells, sequence (P51449 other isoform, or with tags, fused parts or gaps): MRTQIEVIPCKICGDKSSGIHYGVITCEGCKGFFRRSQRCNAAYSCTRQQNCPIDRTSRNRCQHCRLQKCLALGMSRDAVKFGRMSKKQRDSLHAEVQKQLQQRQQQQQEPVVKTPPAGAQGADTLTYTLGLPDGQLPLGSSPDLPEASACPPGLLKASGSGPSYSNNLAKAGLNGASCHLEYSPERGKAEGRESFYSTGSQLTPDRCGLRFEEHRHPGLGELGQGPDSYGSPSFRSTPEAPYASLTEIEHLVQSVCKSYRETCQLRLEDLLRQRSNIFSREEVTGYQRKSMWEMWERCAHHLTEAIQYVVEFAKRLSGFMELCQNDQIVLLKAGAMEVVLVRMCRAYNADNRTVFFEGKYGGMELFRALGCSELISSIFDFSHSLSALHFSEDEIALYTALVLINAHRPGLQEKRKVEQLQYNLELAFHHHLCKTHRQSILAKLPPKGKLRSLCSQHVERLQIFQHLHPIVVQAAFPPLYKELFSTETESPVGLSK
Outline: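 Inverse agonist activity was read as NanoGlo luminescence from conditioned medium after 16–18 h compound exposure (37 °C, 0.1% DMSO final). The cells were Jurkat, transiently transfected with RORγt and a secNluc reporter carrying five RORE repeats, seeded 80,000 per well in delipidated-serum RPMI.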

[3] = Table 8, read-out: RORγt5X IC50 Range*
[4] = Table 9, read-out: RORγt5X IC50 Range*

recombinant RORγ Ligand Binding Domain (LBD) protein, sequence (P51449 269-508): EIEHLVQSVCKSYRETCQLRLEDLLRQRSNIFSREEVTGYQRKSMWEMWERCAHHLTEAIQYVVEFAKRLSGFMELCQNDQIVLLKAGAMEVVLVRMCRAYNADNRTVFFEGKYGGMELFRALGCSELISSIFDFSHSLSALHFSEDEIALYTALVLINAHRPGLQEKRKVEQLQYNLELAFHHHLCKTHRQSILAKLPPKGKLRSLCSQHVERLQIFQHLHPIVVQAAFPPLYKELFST

SMILES	Ki ([1]; Table 8)	IC50 [2, 3]	Ki ([1]; Table 9)	IC50 [2, 4]
CC[C@H](C)[C@H]1c2nc(NC(=O)Cc3ccc(S(C)(=O)=O)cc3)sc2CN1Cc1ccc(Cl)cc1 [I-H1, N—((S)-4-((S)-sec-butyl)-5-(4-chlorobenzyl)-5,6-dihydro-4H-pyrrolo[3,4-d]thiazol-2-yl)-2-(4-(methylsulfonyl)phenyl)acetamide]	< 100 nM	< 100 nM		
CC[C@H](C)C1c2nc(NC(=O)Cc3ccc(S(C)(=O)=O)cc3)sc2CN1Cc1ccc(C#N)c(F)c1 (some centres unmarked) [I-H2]	< 100 nM	< 100 nM		
CC[C@H](C)C1c2nc(NC(=O)Cc3ccc(S(C)(=O)=O)cc3)sc2CN1Cc1ccc(Cl)cn1 (some centres unmarked) [I-H3]	< 100 nM	< 100 nM		
CCS(=O)(=O)c1ccc(CC(=O)Nc2nc3c(s2)CN(Cc2ccc(C#N)cn2)[C@@]3(C)C(C)C)cc1 [I-I1, (S)—N-(5-((5-cyanopyridin-2-yl)methyl)-4-isopropyl-4-methyl-5,6-dihydro-4H-pyrrolo[3,4-d]thiazol-2-yl)-2-(4-(ethylsulfonyl)phenyl)acetamide]	< 100 nM	< 100 nM		
CCS(=O)(=O)c1ccc(CNC(=O)c2nc3c(s2)CN(Cc2ccc(Cl)cc2)[C@H]3C(C)C)cc1 [I-J1, (S)-5-(4-chlorobenzyl)-N-(4-(ethylsulfonyl)benzyl)-4-isopropyl-5,6-dihydro-4H-pyrrolo[3,4-d]thiazole-2-carboxamide]	< 100 nM	< 100 nM		
CCS(=O)(=O)c1ccc(CNC(=O)c2nc3c(s2)CN(Cc2ccc(C#N)cc2)[C@H]3C(C)C)cc1 [I-J2]	< 100 nM	< 100 nM		
CCS(=O)(=O)c1ccc(CNC(=O)c2nc3c(s2)CN(Cc2ccc(-c4nnn(C)n4)cc2)[C@H]3C(C)C)cc1 [I-J3]	< 100 nM	< 100 nM		
CCS(=O)(=O)c1ccc(CNC(=O)c2nc3c(s2)CN(Cc2ccc(C(F)(F)F)cn2)[C@H]3C(C)C)cc1 [I-J4]	< 100 nM	< 100 nM		
CCS(=O)(=O)c1ccc(CNC(=O)c2nc3c(s2)CN(C[C@@H]2CN(C(=O)OC(C)(C)C)CCO2)[C@H]3C(C)C)cc1 [I-J5]	< 100 nM	< 100 nM		
CCS(=O)(=O)c1ccc(CNC(=O)c2nc3c(s2)CN(Cc2ccc(OC(F)F)cc2)[C@H]3C(C)C)cc1 [I-J6]	< 100 nM	< 100 nM		
CC(C)[C@H]1c2nc(C(=O)NCc3ccc(S(C)(=O)=O)cc3)sc2CN1Cc1ccc(Cl)cn1 [I-K1, (S)-5-((5-chloropyridin-2-yl)methyl)-4-isopropyl-N-(4-(methylsulfonyl)benzyl)-5,6-dihydro-4H-pyrrolo[3,4-d]thiazole-2-carboxamide]	< 100 nM	100 to 1000 nM		
CC(C)[C@H]1c2nc(C(=O)NCc3ccc(S(C)(=O)=O)cc3)sc2CN1Cc1ccc(OC(F)F)cc1 [I-K2]	< 100 nM	< 100 nM		
COC(=O)c1ccc(CN2Cc3sc(C(=O)NCc4ccc(S(C)(=O)=O)cc4)nc3[C@@H]2C(C)C)cc1 [I-K3]	< 100 nM	< 100 nM		
CCS(=O)(=O)c1ccc(CNC(=O)c2nc3c(s2)CN(Cc2ccc(Cl)cc2)[C@H]3C(C)C)nc1 [I-L1, (S)-5-(4-chlorobenzyl)-N-((5-(ethylsulfonyl)pyridin-2-yl)methyl)-4-isopropyl-5,6-dihydro-4H-pyrrolo[3,4-d]thiazole-2-carboxamide]	< 100 nM	< 100 nM		
CC(C)[C@H]1c2nc(NC(=O)Cc3ccc(S(C)(=O)=O)cc3F)sc2CN1Cc1ccc(C#N)cc1 [I-M1, (S)—N-(5-(4-cyanobenzyl)-4-isopropyl-5,6-dihydro-4H-pyrrolo[3,4-d]thiazol-2-yl)-2-(2-fluoro-4-(methylsulfonyl)phenyl)acetamide]	< 100 nM	< 100 nM		
CCS(=O)(=O)c1ccc(CC(=O)Nc2nc3c(s2)CN(Cc2ccc(C#N)cc2)[C@H]3C(C)C)nc1 [drawing 230]			< 100 nM	< 100 nM
CCS(=O)(=O)c1ccc(CC(=O)Nc2nc3c(s2)CN(Cc2ccc(C#N)cn2)[C@@]3(C)C(C)C)cc1 [drawing 270]			< 100 nM	< 100 nM
CC(C)[C@H]1c2nc(C(=O)NCc3ccc(S(C)(=O)=O)cc3)sc2CN1Cc1ccc(Cl)cn1 [drawing 378]			< 100 nM	100 to 1000 nM
CC(C)[C@H]1c2nc(NS(=O)(=O)c3ccc(CC(=O)O)cc3)sc2CN1Cc1ccc(C#N)c(F)c1 [drawing 411]			< 100 nM	> 1000 nM
